From publication PMC5560858, “A lectin receptor kinase as a potential sensor for extracellular nicotinamide adenine dinucleotide in Arabidopsis thaliana” (eLife, 2017)

Biological target: T1, LecRK-I.8 (lectin receptor kinase-I.8, At5g60280) (Arabidopsis thaliana, UniProt Q9LSR9)
T1 construct: gene LECRK18; extracellular lectin domain (amino acids 23 to 283) fused to GFP (eLecRK-I.8-GFP)
Test: […]-NAD+ radioligand saturation binding to immunoprecipitated eLecRK-I.8-GFP; also competition, and binding to recombinant MBP-eLecRK-I.[…]

T1 sequence (Q9LSR9 23-283): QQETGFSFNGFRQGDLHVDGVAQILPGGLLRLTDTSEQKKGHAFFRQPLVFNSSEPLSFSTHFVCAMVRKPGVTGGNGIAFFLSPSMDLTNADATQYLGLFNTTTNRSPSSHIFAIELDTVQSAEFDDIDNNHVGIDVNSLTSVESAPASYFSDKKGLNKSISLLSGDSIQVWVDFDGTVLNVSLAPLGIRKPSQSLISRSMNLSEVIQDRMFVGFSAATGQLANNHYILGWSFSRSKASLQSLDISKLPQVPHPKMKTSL

Kd: 437 ± 105 nM
SMILES: NC(=O)c1ccc[n+]([C@@H]2O[C@H](COP(=O)([O-])OP(=O)(O)OC[C@H]3O[C@@H](n4cnc5c(N)ncnc54)[C@H](O)[C@@H]3O)[C@@H](O)[C@H]2O)c1 [NAD+]
